PubChem BioAssay (NCI)
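Growth conditions: 96-well plates. Treatment: test compound, 48 hours, 5 concentrations. Analysis: linear interpolation between bracketing concentrations; unreached endpoints set to highest concentration. TGI is the concentration that stops growth completely.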

Columns and labels:
Assay in all cases: growth of human tumour cells (NCI), 48 h
[1] = tested on: SK-MEL-2 melanoma
[2] = tested on: A498 renal
[3] = tested on: HOP-62 NSCLC
[4] = tested on: HCT-15 colon
[5] = tested on: SK-MEL-5 melanoma
[6] = tested on: SNB-19 CNS
[7] = tested on: PC-3 prostate
[8] = tested on: SF-268 CNS
[9] = tested on: SK-MEL-28 melanoma
[10] = tested on: UO-31 renal
[11] = tested on: OVCAR-8 ovarian
[12] = tested on: MDA-N
[13] = tested on: MDA-MB-231 breast
[14] = tested on: IGROV1 ovarian
[15] = tested on: OVCAR-3 ovarian
[16] = tested on: SK-OV-3 ovarian
[17] = tested on: ACHN renal
[18] = tested on: RXF 393 renal
[19] = tested on: SNB-75 CNS
[20] = tested on: LOX IMVI melanoma
[21] = tested on: MDA-MB-435
[22] = tested on: SW-620 colon
[23] = tested on: HT29 colon
[24] = tested on: EKVX NSCLC
[25] = tested on: NCI/ADR-RES ovarian
[26] = tested on: HCC-2998 colon
[27] = tested on: HOP-92 NSCLC
[28] = tested on: KM12 colon
[29] = tested on: NCI-H460 lung
[30] = tested on: SN12C renal
[31] = tested on: A549 NSCLC
[32] = tested on: T-47D breast
[33] = tested on: DU-145 prostate
[34] = tested on: NCI-H23 lung
[35] = tested on: MCF7 breast
[36] = tested on: BT-549 breast
[37] = tested on: NCI-H522 lung
[38] = tested on: TK-10 renal
[39] = tested on: OVCAR-5 ovarian
[40] = tested on: MALME-3M melanoma
[41] = tested on: M14 melanoma
[42] = tested on: COLO 205 colon
[43] = tested on: OVCAR-4 ovarian
[44] = tested on: CCRF-CEM leukemia
[45] = tested on: 786-0 renal
[46] = tested on: CAKI-1 renal
[47] = tested on: UACC-257 melanoma
[48] = tested on: NCI-H226 lung
[49] = tested on: HCT-116 colon
[50] = tested on: U251 CNS
[51] = tested on: SF-295 CNS
[52] = tested on: RPMI-8226 leukemia
[53] = tested on: K-562 leukemia
[54] = tested on: SR leukemia
[55] = tested on: HS 578T breast
[56] = tested on: MOLT-4 leukemia
[57] = tested on: UACC-62 melanoma
[58] = tested on: SF-539 CNS

Measured: TGI

C=C(C)[C@@]1(O)CCC[C@H]1NC(=O)OC(C)(C)C
> 100 µM: [1] | [2] | [3] | [4] | [5] | [6] | [7] | [8] | [9] | [10] | [11] | [12] | [13] | [14] | [15] | [16] | [17] | [18] | [19] | [20] | [21] | [22] | [23] | [24] | [25] | [26] | [27] | [28] | [29] | [30] | [31] | [32] | [33] | [34] | [35] | [36] | [37] | [38] | [39] | [40] | [41] | [42] | [43] | [44] | [45] | [46] | [47] | [48] | [49] | [50] | [51]

CC1(C)C(=S)C(C)(C)C1=S
> 100 µM: [1] | [52] | [3] | [4] | [5] | [6] | [7] | [8] | [9] | [10] | [12] | [13] | [14] | [15] | [16] | [17] | [53] | [19] | [20] | [21] | [22] | [23] | [24] | [25] | [26] | [54] | [28] | [29] | [55] | [30] | [31] | [32] | [33] | [56] | [34] | [35] | [57] | [38] | [39] | [40] | [41] | [42] | [43] | [45] | [47] | [48] | [49] | [50] | [58]
